Source: patent publication US20230399312A1, “SUBSTITUTED PYRIMIDINES AND METHODS OF USE” (THERAVANCE BIOPHARMA R&D IP, LLC, priority 2020, published 2023)

Legend:
[1] = test system: TGF-β-stimulated SMAD3 phosphorylation in BEAS-2B cells; test: Cellular ALK5 potency assay, inhibition of TGF-β stimulated pSMAD3 formation in BEAS-2B cells; assay type: cell-based; details: Homo sapiens, pSMAD3, TGF-β 10 ng/mL, read-out: BEAS2B pIC50 (converted)
Outline: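 Reported as pIC50, potency reflects dose-dependent loss of AlphaLISA pSMAD3 signal versus TGF-β-stimulated, compound-free BEAS-2B cells. Compound was applied for 1 h in BSA-containing HBSS buffer before a 30-min challenge with TGF-β at 10 ng/mL final.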

[2] = target: T1, recombinant human ALK5 (TGF-βR1) protein (Homo sapiens, UniProt P36897); test: Biochemical ALK5 (TGF-βR1) assay to measure pKi (LANCE Ultra ULight kinase assay); details: apparent pKi, converted from pIC50 by Cheng-Prusoff
T1 construct: purchased Life Technologies PR9075A
T1 sequence (P36897 34-503): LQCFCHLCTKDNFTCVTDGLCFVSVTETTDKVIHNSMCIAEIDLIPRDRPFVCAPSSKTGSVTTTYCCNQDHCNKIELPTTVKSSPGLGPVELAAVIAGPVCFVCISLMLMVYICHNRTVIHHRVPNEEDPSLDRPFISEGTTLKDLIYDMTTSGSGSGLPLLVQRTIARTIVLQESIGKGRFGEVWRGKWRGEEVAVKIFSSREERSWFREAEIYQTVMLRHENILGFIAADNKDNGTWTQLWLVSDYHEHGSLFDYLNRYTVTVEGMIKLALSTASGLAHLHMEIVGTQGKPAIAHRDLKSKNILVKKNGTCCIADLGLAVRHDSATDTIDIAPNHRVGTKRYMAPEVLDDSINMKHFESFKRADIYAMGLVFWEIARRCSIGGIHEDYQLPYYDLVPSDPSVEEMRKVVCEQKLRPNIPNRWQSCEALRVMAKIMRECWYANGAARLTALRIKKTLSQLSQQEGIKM
Outline: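 Enzyme was preincubated with compound for 60 min at room temperature, then ATP (added from a 125 μM 5× stock with 2 mM DTT) started a 60 min reaction at 37 °C. EDTA plus Eu-anti-phospho-Topo2α (Thr1342) antibody stopped it; TR-FRET pIC50 values were converted to pKi by Cheng-Prusoff.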

Row | Structure (SMILES) | Ki [2] [nM] | IC50 [1] [nM]
1 | Cc1cccc(-c2nccc(Nc3ccnc(Nc4cncc(C(=O)OC[C@@H]5CCNC5)c4)n3)n2)n1 [Compound 570, [(3R)-pyrrolidin-3-yl]methyl 5-[[4-[[2-(6-methyl-2-pyridyl)pyrimidin-4-yl]amino]pyrimidin-2-yl]amino]pyridine-3-carboxylate] | 0.398 to 3.16 | 25.1 to 158
2 | Cc1cccc(-c2nccc(Nc3ccnc(Nc4nc(C5=CCNCC5)cs4)n3)n2)n1 [Compound 571, N4-[2-(6-methyl-2-pyridyl)pyrimidin-4-yl]-N2-[4-(1,2,3,6-tetrahydropyridin-4-yl)thiazol-2-yl]pyrimidine-2,4-diamine] | 0.0398 to 0.316 | ≤ 20
3 | Cc1cccc(-c2nccc(Nc3ccnc(Nc4ccc(C(=O)O[C@@H]5CCNC5)cn4)n3)n2)n1 [Compound 574, [(3R)-pyrrolidin-3-yl] 6-[[4-[[2-(6-methyl-2-pyridyl)pyrimidin-4-yl]amino]pyrimidin-2-yl]amino]pyridine-3-carboxylate] | 3.98 to 31.6 | 200 to 1260
4 | Cc1cccc(-c2nccc(Nc3ccnc(Nc4ccc(C(=O)O[C@H]5CCNC5)cn4)n3)n2)n1 [Compound 575, [(3S)-pyrrolidin-3-yl] 6-[[4-[[2-(6-methyl-2-pyridyl)pyrimidin-4-yl]amino]pyrimidin-2-yl]amino]pyridine-3-carboxylate] | 3.98 to 31.6 | 200 to 1260
5 | Cc1cccc(-c2nccc(Nc3ccnc(Nc4ncc(C(=O)OC[C@H]5CCCCN5)s4)n3)n2)n1 [Compound 578, [(2R)-2-piperidyl]methyl 2-[[4-[[2-(6-methyl-2-pyridyl)pyrimidin-4-yl]amino]pyrimidin-2-yl]amino]thiazole-5-carboxylate] | 3.98 to 31.6 | 200 to 1260
6 | Cc1cccc(-c2nccc(Nc3ccnc(Nc4cc(C(=O)OC5CNC5)ccn4)n3)n2)n1 [Compound 579, azetidin-3-yl 2-[[4-[[2-(6-methyl-2-pyridyl)pyrimidin-4-yl]amino]pyrimidin-2-yl]amino]pyridine-4-carboxylate] | 3.98 to 31.6 | 25.1 to 158
7 | Cc1cccc(-c2nccc(Nc3ccnc(Nc4nc(C(=O)OC[C@@H]5CCCNC5)cs4)n3)n2)n1 [Compound 580, [(3R)-3-piperidyl]methyl 2-[[4-[[2-(6-methyl-2-pyridyl)pyrimidin-4-yl]amino]pyrimidin-2-yl]amino]thiazole-4-carboxylate] | 0.398 to 3.16 | 200 to 1260
8 | Cc1cccc(-c2nccc(Nc3ccnc(Nc4ccc(C(=O)OCCN5CCNCC5)cn4)n3)n2)n1 [Compound 581, 2-piperazin-1-ylethyl 6-[[4-[[2-(6-methyl-2-pyridyl)pyrimidin-4-yl]amino]pyrimidin-2-yl]amino]pyridine-3-carboxylate] | 3.98 to 31.6 | 25.1 to 158
9 | Cc1cccc(-c2nccc(Nc3ccnc(Nc4csc(C(=O)OC[C@H]5CCCN5)c4)n3)n2)n1 [Compound 583, [(2R)-pyrrolidin-2-yl]methyl 4-[[4-[[2-(6-methyl-2-pyridyl)pyrimidin-4-yl]amino]pyrimidin-2-yl]amino]thiophene-2-carboxylate] | 0.0398 to 0.316 | 25.1 to 158
10 | Cc1cccc(-c2nccc(Nc3ccnc(Nc4ccc(C(=O)OC[C@@H]5CCNC5)nc4)n3)n2)n1 [Compound 584, [(3R)-pyrrolidin-3-yl]methyl 5-[[4-[[2-(6-methyl-2-pyridyl)pyrimidin-4-yl]amino]pyrimidin-2-yl]amino]pyridine-2-carboxylate] | 0.0398 to 0.316 | 25.1 to 158
11 | Cc1cccc(-c2nccc(Nc3ccnc(Nc4csc(C(=O)O)n4)n3)n2)n1 [Compound 585, 4-[[4-[[2-(6-methyl-2-pyridyl)pyrimidin-4-yl]amino]pyrimidin-2-yl]amino]thiazole-2-carboxylic acid] | 3.98 to 31.6 | 200 to 1260
12 | Cc1cccc(-c2nccc(Nc3ccnc(Nc4nc(C(=O)OC[C@H]5CCCCN5)cs4)n3)n2)n1 [Compound 586, [(2R)-2-piperidyl]methyl 2-[[4-[[2-(6-methyl-2-pyridyl)pyrimidin-4-yl]amino]pyrimidin-2-yl]amino]thiazole-4-carboxylate] | 0.398 to 3.16 | 25.1 to 158
13 | Cc1cccc(-c2nccc(Nc3ccnc(Nc4ccc(C(=O)OCC5CCNCC5)nc4)n3)n2)n1 [Compound 587, 4-piperidylmethyl 5-[[4-[[2-(6-methyl-2-pyridyl)pyrimidin-4-yl]amino]pyrimidin-2-yl]amino]pyridine-2-carboxylate] | 0.0398 to 0.316 | 25.1 to 158
14 | Cc1cccc(-c2nccc(Nc3ccnc(Nc4csc(C(=O)OC[C@H]5CCCCN5)c4)n3)n2)n1 [Compound 588, [(2R)-2-piperidyl]methyl 4-[[4-[[2-(6-methyl-2-pyridyl)pyrimidin-4-yl]amino]pyrimidin-2-yl]amino]thiophene-2-carboxylate] | 0.0398 to 0.316 | 25.1 to 158
15 | Cc1cccc(-c2nccc(Nc3ccnc(Nc4ccc(C(=O)OCCN5C[C@@H](C)N[C@@H](C)C5)nc4)n3)n2)n1 [Compound 589, 2-[(3R,5S)-3,5-dimethylpiperazin-1-yl]ethyl 5-[[4-[[2-(6-methyl-2-pyridyl)pyrimidin-4-yl]amino]pyrimidin-2-yl]amino]pyridine-2-carboxylate] | 0.398 to 3.16 | 25.1 to 158

Second part, led by results:

Row | Ki [2] [nM] | Structure (SMILES) | IC50 [1] [nM]
16 | 0.0398 to 0.316 | Cc1cccc(-c2nccc(Nc3ccnc(Nc4cncc(CN5CC(C(=O)OC6CCNCC6)C5)c4)n3)n2)n1 [Compound 565, 4-piperidyl 1-[[5-[[4-[[2-(6-methyl-2-pyridyl)pyrimidin-4-yl]amino]pyrimidin-2-yl]amino]-3-pyridyl]methyl]azetidine-3-carboxylate] | 25.1 to 158
17 | 0.0398 to 0.316 | Cc1cccc(-c2nccc(Nc3ccnc(Nc4csc(C(=O)O[C@H]5CC[C@@](C)(N)CC5)c4)n3)n2)n1 [Compound 566, (4-amino-4-methyl-cyclohexyl) 4-[[4-[[2-(6-methyl-2-pyridyl)pyrimidin-4-yl]amino]pyrimidin-2-yl]amino]thiophene-2-carboxylate] | 25.1 to 158
18 | 0.0398 to 0.316 | Cc1cccc(-c2nccc(Nc3ccnc(Nc4ccc(C(=O)O[C@@H]5CC[C@@H](C)NC5)nc4)n3)n2)n1 [Compound 567, [(3R,6R)-6-methyl-3-piperidyl] 5-[[4-[[2-(6-methyl-2-pyridyl)pyrimidin-4-yl]amino]pyrimidin-2-yl]amino]pyridine-2-carboxylate] | 25.1 to 158
19 | 0.0398 to 0.316 | Cc1cccc(-c2nccc(Nc3ccnc(Nc4csc(C(=O)OCCN5CC[C@@H](N)C5)c4)n3)n2)n1 [Compound 568, 2-[(3R)-3-aminopyrrolidin-1-yl]ethyl 4-[[4-[[2-(6-methyl-2-pyridyl)pyrimidin-4-yl]amino]pyrimidin-2-yl]amino]thiophene-2-carboxylate] | 25.1 to 158
20 | 0.0398 to 0.316 | Cc1cccc(-c2nccc(Nc3ccnc(Nc4ccc(CN5CC(C(=O)O)C5)nc4)n3)n2)n1 [Compound 569, 1-[[5-[[4-[[2-(6-methyl-2-pyridyl)pyrimidin-4-yl]amino]pyrimidin-2-yl]amino]-2-pyridyl]methyl]azetidine-3-carboxylic acid] | 200 to 1260
21 | 0.0398 to 0.316 | Cc1cccc(-c2nccc(Nc3ccnc(Nc4csc(C(=O)O[C@H]5CC[C@](C)(N)CC5)c4)n3)n2)n1 [Compound 572, (4-amino-4-methyl-cyclohexyl) 4-[[4-[[2-(6-methyl-2-pyridyl)pyrimidin-4-yl]amino]pyrimidin-2-yl]amino]thiophene-2-carboxylate] | 25.1 to 158
22 | 0.0398 to 0.316 | Cc1cccc(-c2nccc(Nc3ccnc(Nc4cncc(CN5CC(C(=O)O[C@H]6CCNC6)C5)c4)n3)n2)n1 [Compound 573, [(3S)-pyrrolidin-3-yl] 1-[[5-[[4-[[2-(6-methyl-2-pyridyl)pyrimidin-4-yl]amino]pyrimidin-2-yl]amino]-3-pyridyl]methyl]azetidine-3-carboxylate] | 25.1 to 158
23 | 0.0398 to 0.316 | CC(=O)N1CC(COC(=O)c2cc(Nc3nccc(Nc4ccnc(-c5cccc(C)n5)n4)n3)cs2)C1 [Compound 576, (1-acetylazetidin-3-yl)methyl 4-[[4-[[2-(6-methyl-2-pyridyl)pyrimidin-4-yl]amino]pyrimidin-2-yl]amino]thiophene-2-carboxylate] | 25.1 to 158
24 | 0.0398 to 0.316 | Cc1cccc(-c2nccc(Nc3ccnc(Nc4ccc(C(=O)OC[C@H]5CCCN5)nc4)n3)n2)n1 [Compound 577, [(2R)-pyrrolidin-2-yl]methyl 5-[[4-[[2-(6-methyl-2-pyridyl)pyrimidin-4-yl]amino]pyrimidin-2-yl]amino]pyridine-2-carboxylate] | 25.1 to 158
25 | 0.0398 to 0.316 | Cc1cccc(-c2nccc(Nc3ccnc(Nc4ccc(C(=O)OC[C@H]5CCNC5)nc4)n3)n2)n1 [Compound 582, [(3S)-pyrrolidin-3-yl]methyl 5-[[4-[[2-(6-methyl-2-pyridyl)pyrimidin-4-yl]amino]pyrimidin-2-yl]amino]pyridine-2-carboxylate] | 25.1 to 158
